Experimental data published in BindingDB's records for doi:10.1021/jm034056q (Wyeth Research, 2003).

Biological target: Beta-lactamase TEM (Escherichia coli) (UniProt P62593)
Experiment: In vitro inhibitory activity against Beta-lactamase TEM-1 of class A enzyme

Chain of Beta-lactamase TEM (Escherichia coli) (P62593 whole entry, looked up): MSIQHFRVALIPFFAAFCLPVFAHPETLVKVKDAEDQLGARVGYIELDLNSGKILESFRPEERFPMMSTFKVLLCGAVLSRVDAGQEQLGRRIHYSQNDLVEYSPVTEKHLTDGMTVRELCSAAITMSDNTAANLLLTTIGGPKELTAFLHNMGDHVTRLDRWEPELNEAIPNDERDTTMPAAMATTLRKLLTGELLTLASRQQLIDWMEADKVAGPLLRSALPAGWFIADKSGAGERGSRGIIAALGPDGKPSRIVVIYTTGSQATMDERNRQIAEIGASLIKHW

| Structure (SMILES) | IC50 [µM] |
| --- | --- |
| CC(C)(C)[Si](C)(C)O[C@H]1C[C@]12C(=O)N1[C@@H](C(=O)O)C(C)(C)S(=O)(=O)[C@@H]12 [(2S,5R,6R)-2'-(tert-Butyl-dimethyl-silanyl-oxy)-3,3-dimethyl-7-oxo-4-thia-1-azaspiro[bicyclo[3.2.0]heptane-6,1'-cyclopropane]-2-carboxylic acid 4,4-dioxide] | 0.65 |
| CC(C)(C)[Si](C)(C)O[C@@H]1C[C@@]12C(=O)N1[C@@H](C(=O)O)C(C)(C)S(=O)(=O)[C@@H]12 [(2S,5R,6R)-2'-(tert-Butyl-dimethyl-silanyl-oxy)-3,3-dimethyl-7-oxo-4-thia-1-azaspiro[bicyclo[3.2.0]heptane-6,1'-cyclopropane]-2-carboxylic acid 4,4-dioxide] | 12 |
| CC1(C)[C@H](C(=O)O)N2C(=O)[C@@]3(C[C@@H]3OC3CCCCC3)[C@H]2S1(=O)=O [(2S,5R,6S)-2'-(cyclohexyloxy)-3,3-dimethyl-7-oxo-4-thia-1-azaspiro[bicyclo[3.2.0]heptane-6,1'-cyclopropane]-2-carboxylic acid 4,4-dioxide] | 1.7 |
| CC(C)(C)[Si](C)(C)O[C@H]1C[C@@]12C(=O)N1[C@@H](C(=O)O)C(C)(C)S(=O)(=O)[C@@H]12 [(2R,5R,6R)-2'-(tert-Butyl-dimethyl-silanyl-oxy)-3,3-dimethyl-7-oxo-4-thia-1-azaspiro[bicyclo[3.2.0]heptane-6,1'-cyclopropane]-2-carboxylic acid 4,4-dioxide] | 17 |
| CC1(C)[C@H](C(=O)O)N2C(=O)[C@@]3(C[C@H]3OC3CCCCC3)[C@H]2S1(=O)=O [2'-(cyclohexyloxy)-3,3-dimethyl-7-oxo-4-thia-1-azaspiro[bicyclo[3.2.0]heptane-6,1'-cyclopropane]-2-carboxylic acid 4,4-dioxide] | > 13 |
| CC1(C)[C@H](C(=O)O)N2C(=O)[C@]3(C[C@@H]3OC3CCCCC3)[C@H]2S1(=O)=O [(2S,5R,6R)-2'-(cyclohexyloxy)-3,3-dimethyl-7-oxo-4-thia-1-azaspiro[bicyclo[3.2.0]heptane-6,1'-cyclopropane]-2-carboxylic acid 4,4-dioxide] | 0.51 |
